PubChem BioAssay (NCI)
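Interpolation was linear, between the two tested concentrations surrounding the appropriate level; five concentrations were tested over 48 hours in 96-well plates. Definition used: TGI = concentration required for complete inhibition of growth.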

Key:
Experiment in all cases: DTP human tumour cell line panel, 48 h
[1] = system: MALME-3M melanoma
[2] = system: NCI/ADR-RES ovarian
[3] = system: NCI-H23 lung
[4] = system: M14 melanoma
[5] = system: RXF 393 renal
[6] = system: HCT-15 colon
[7] = system: ACHN renal
[8] = system: MDA-N
[9] = system: SR leukemia
[10] = system: NCI-H226 lung
[11] = system: HCC-2998 colon
[12] = system: SK-MEL-28 melanoma
[13] = system: KM12 colon
[14] = system: PC-3 prostate
[15] = system: SW-620 colon
[16] = system: CCRF-CEM leukemia
[17] = system: SF-268 CNS
[18] = system: HOP-62 NSCLC
[19] = system: HCT-116 colon
[20] = system: UACC-257 melanoma
[21] = system: HT29 colon
[22] = system: UACC-62 melanoma
[23] = system: T-47D breast
[24] = system: COLO 205 colon
[25] = system: NCI-H460 lung
[26] = system: 786-0 renal
[27] = system: SK-MEL-2 melanoma
[28] = system: A549 NSCLC
[29] = system: IGROV1 ovarian
[30] = system: HL-60(TB) leukemia
[31] = system: UO-31 renal
[32] = system: RPMI-8226 leukemia
[33] = system: HS 578T breast
[34] = system: MDA-MB-435
[35] = system: DU-145 prostate
[36] = system: OVCAR-3 ovarian
[37] = system: OVCAR-5 ovarian
[38] = system: SNB-75 CNS
[39] = system: SK-MEL-5 melanoma
[40] = system: SN12C renal
[41] = system: MCF7 breast
[42] = system: SF-539 CNS
[43] = system: LOX IMVI melanoma
[44] = system: A498 renal
[45] = system: TK-10 renal
[46] = system: BT-549 breast
[47] = system: U251 CNS
[48] = system: K-562 leukemia
[49] = system: HOP-92 NSCLC
[50] = system: MDA-MB-231 breast
[51] = system: OVCAR-4 ovarian
[52] = system: SK-OV-3 ovarian
[53] = system: SNB-19 CNS
[54] = system: SF-295 CNS
[55] = system: MOLT-4 leukemia
[56] = system: NCI-H522 lung
[57] = system: CAKI-1 renal
[58] = system: EKVX NSCLC
[59] = system: OVCAR-8 ovarian

O=C(Cn1c(C(=O)/C=C/c2ccco2)nc2ccccc21)c1ccc(Cl)cc1
TGI [1]: 40.2 µM | TGI [2]: 30.4 µM | TGI [3]: 28.1 µM | TGI [4]: 58.2 µM | TGI [5]: > 100 µM | TGI [6]: 99.4 µM | TGI [7]: > 100 µM | TGI [8]: 50.2 µM | TGI [9]: 16.4 µM | TGI [10]: > 100 µM | TGI [11]: 33.6 µM | TGI [12]: > 100 µM | TGI [13]: 47.1 µM | TGI [14]: 44.2 µM | TGI [15]: > 100 µM | TGI [16]: 27.4 µM | TGI [17]: 58.6 µM | TGI [18]: > 100 µM | TGI [19]: 39.9 µM | TGI [20]: 51.9 µM | TGI [21]: 92.6 µM | TGI [22]: > 100 µM | TGI [23]: > 100 µM | TGI [24]: 49.2 µM | TGI [25]: 27.2 µM | TGI [26]: 31.4 µM | TGI [27]: 27.8 µM | TGI [28]: > 100 µM | TGI [29]: 57.1 µM | TGI [30]: 41 µM | TGI [31]: 94.3 µM | TGI [32]: 32.9 µM | TGI [33]: 24.6 µM | TGI [34]: 32.7 µM | TGI [35]: > 100 µM | TGI [36]: > 100 µM | TGI [37]: > 100 µM | TGI [38]: > 100 µM | TGI [39]: 97.1 µM | TGI [40]: 61.5 µM | TGI [41]: 76.4 µM | TGI [42]: > 100 µM | TGI [43]: 26.7 µM | TGI [44]: 44.4 µM | TGI [45]: 85.8 µM | TGI [46]: 42.9 µM | TGI [47]: > 100 µM | TGI [48]: 51 µM | TGI [49]: > 100 µM | TGI [50]: 59.8 µM | TGI [51]: 65 µM | TGI [52]: > 100 µM | TGI [53]: > 100 µM

C[C@H](CCC(=O)O[C@@H]1CC[C@@]2(C)C(CC[C@H]3[C@@H]4CC[C@H]([C@H](C)CCc5nc6ccccc6[nH]5)[C@@]4(C)CC[C@@H]32)C1)[C@H]1CC[C@H]2[C@@H]3CCC4C[C@H](O)CC[C@]4(C)[C@H]3CC[C@]12C (stereo partly specified)
TGI [2]: > 100 µM | TGI [3]: > 100 µM | TGI [4]: > 100 µM | TGI [5]: > 100 µM | TGI [6]: > 100 µM | TGI [54]: > 100 µM | TGI [7]: > 100 µM | TGI [8]: > 100 µM | TGI [9]: > 100 µM | TGI [10]: > 100 µM | TGI [11]: > 100 µM | TGI [12]: > 100 µM | TGI [13]: > 100 µM | TGI [14]: > 100 µM | TGI [15]: > 100 µM | TGI [55]: > 100 µM | TGI [16]: > 100 µM | TGI [17]: > 100 µM | TGI [18]: > 100 µM | TGI [19]: > 100 µM | TGI [20]: > 100 µM | TGI [21]: > 100 µM | TGI [56]: > 100 µM | TGI [22]: > 100 µM | TGI [57]: > 100 µM | TGI [23]: > 100 µM | TGI [24]: > 100 µM | TGI [58]: > 100 µM | TGI [25]: > 100 µM | TGI [26]: > 100 µM | TGI [27]: > 100 µM | TGI [28]: > 100 µM | TGI [29]: > 100 µM | TGI [30]: > 100 µM | TGI [31]: > 100 µM | TGI [32]: > 100 µM | TGI [59]: > 100 µM | TGI [33]: > 100 µM | TGI [34]: > 100 µM | TGI [35]: > 100 µM | TGI [36]: > 100 µM | TGI [37]: > 100 µM | TGI [38]: > 100 µM | TGI [39]: > 100 µM | TGI [40]: > 100 µM | TGI [41]: > 100 µM | TGI [42]: > 100 µM | TGI [43]: > 100 µM | TGI [44]: > 100 µM | TGI [45]: > 100 µM | TGI [46]: > 100 µM | TGI [47]: > 100 µM | TGI [48]: > 100 µM | TGI [49]: > 100 µM | TGI [50]: > 100 µM | TGI [51]: > 100 µM | TGI [52]: > 100 µM | TGI [53]: 61.2 µM
